Test results: PubChem BioAssay (NCI)
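Grown in 96-well plates, cells were treated for 48 hours with each compound at five concentrations. Insufficient inhibition: endpoint recorded as highest concentration tested. TGI marks complete inhibition of growth.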

Tests used:
Assay in all cases: NCI anticancer screen, dose series, 48 h
[1] = tested on: A498 renal
[2] = tested on: A549 NSCLC
[3] = tested on: CCRF-CEM leukemia
[4] = tested on: DMS 114 small cell lung
[5] = tested on: EKVX NSCLC
[6] = tested on: HCT-116 colon
[7] = tested on: HL-60(TB) leukemia
[8] = tested on: HOP-62 NSCLC
[9] = tested on: HOP-92 NSCLC
[10] = tested on: HT29 colon
[11] = tested on: IGROV1 ovarian
[12] = tested on: KM12 colon
[13] = tested on: M14 melanoma
[14] = tested on: M19-MEL melanoma
[15] = tested on: MOLT-4 leukemia
[16] = tested on: NCI-H226 lung
[17] = tested on: NCI-H23 lung
[18] = tested on: NCI-H460 lung
[19] = tested on: NCI-H522 lung
[20] = tested on: OVCAR-5 ovarian
[21] = tested on: OVCAR-8 ovarian
[22] = tested on: RXF 393 renal
[23] = tested on: SF-268 CNS
[24] = tested on: SF-295 CNS
[25] = tested on: SK-MEL-28 melanoma
[26] = tested on: SK-OV-3 ovarian
[27] = tested on: SNB-19 CNS
[28] = tested on: SNB-78 CNS
[29] = tested on: SR leukemia
[30] = tested on: TK-10 renal
[31] = tested on: U251 CNS
[32] = tested on: UACC-257 melanoma
[33] = tested on: UACC-62 melanoma
[34] = tested on: UO-31 renal
[35] = tested on: 786-0 renal
[36] = tested on: ACHN renal
[37] = tested on: BT-549 breast
[38] = tested on: CAKI-1 renal
[39] = tested on: COLO 205 colon
[40] = tested on: DU-145 prostate
[41] = tested on: HCC-2998 colon
[42] = tested on: HCT-15 colon
[43] = tested on: HS 578T breast
[44] = tested on: K-562 leukemia
[45] = tested on: LOX IMVI melanoma
[46] = tested on: MALME-3M melanoma
[47] = tested on: MCF7 breast
[48] = tested on: MDA-MB-231 breast
[49] = tested on: MDA-MB-435
[50] = tested on: MDA-N
[51] = tested on: NCI/ADR-RES ovarian
[52] = tested on: OVCAR-3 ovarian
[53] = tested on: OVCAR-4 ovarian
[54] = tested on: PC-3 prostate
[55] = tested on: RPMI-8226 leukemia
[56] = tested on: SF-539 CNS
[57] = tested on: SK-MEL-5 melanoma
[58] = tested on: SN12C renal
[59] = tested on: SW-620 colon
[60] = tested on: T-47D breast

Which results are given for CC1(Cl)CCC2(CC(Br)=CC3OC32C)CC1Br (centres undefined)?
TGI [1]: 68.8 µM; TGI [2]: > 100 µM; TGI [3]: 53.5 µM; TGI [4]: 83.2 µM; TGI [5]: > 100 µM; TGI [6]: 40.2 µM; TGI [7]: 38.7 µM; TGI [8]: 87.4 µM; TGI [9]: 78.8 µM; TGI [10]: 57 µM; TGI [11]: > 100 µM; TGI [12]: > 100 µM; TGI [13]: > 100 µM; TGI [14]: 81.2 µM; TGI [15]: 52.4 µM; TGI [16]: 47.3 µM; TGI [17]: 49.9 µM; TGI [18]: 71.1 µM; TGI [19]: 55.5 µM; TGI [20]: > 100 µM; TGI [21]: 91.7 µM; TGI [22]: 40.8 µM; TGI [23]: 50.1 µM; TGI [24]: 57.6 µM; TGI [25]: 69.9 µM; TGI [26]: > 100 µM; TGI [27]: > 100 µM; TGI [28]: 86.6 µM; TGI [29]: 55.8 µM; TGI [30]: > 100 µM; TGI [31]: 41.8 µM; TGI [32]: 42.4 µM; TGI [33]: 42.7 µM; TGI [34]: 66.6 µM

O=C(Cc1nccc2c1[nH]c1ccccc12)OC1C#CCSCC#C/C=C\1 (centres undefined) was tested. Which TGI [35] did it give?
The TGI was > 100 µM.

And the TGI [1]?
The TGI was > 100 µM.

What about the TGI [2] of the same molecule?
Its TGI is > 100 µM.

And the TGI [36]?
The TGI was > 100 µM.

And the TGI [37]?
The TGI was > 100 µM.

And the TGI [38]?
Its TGI is > 100 µM.

And the TGI [3]?
Its TGI is > 100 µM.

And the TGI [39]?
The TGI was > 100 µM.

What about the TGI [40] of the same molecule?
The TGI was > 100 µM.

What about the TGI [5] of the same molecule?
The TGI was > 100 µM.

And the TGI [41]?
Its TGI is > 100 µM.

And the TGI [6]?
Its TGI is > 100 µM.

And the TGI [42]?
Its TGI is > 100 µM.

And the TGI [7]?
Its TGI is > 100 µM.

What about the TGI [8] of the same molecule?
The TGI was > 100 µM.

What about the TGI [9] of the same molecule?
Its TGI is > 100 µM.

What about the TGI [43] of the same molecule?
Its TGI is > 100 µM.

What about the TGI [10] of the same molecule?
The TGI was > 100 µM.

And the TGI [11]?
The TGI was > 100 µM.

What about the TGI [44] of the same molecule?
Its TGI is > 100 µM.

What about the TGI [12] of the same molecule?
The TGI was > 100 µM.

What about the TGI [45] of the same molecule?
The TGI was > 100 µM.

And the TGI [13]?
The TGI was > 100 µM.

What about the TGI [46] of the same molecule?
The TGI was > 100 µM.

And the TGI [47]?
The TGI was > 100 µM.

What about the TGI [48] of the same molecule?
The TGI was > 100 µM.

What about the TGI [49] of the same molecule?
The TGI was > 100 µM.

What about the TGI [50] of the same molecule?
Its TGI is > 100 µM.

And the TGI [15]?
Its TGI is > 100 µM.

What about the TGI [16] of the same molecule?
Its TGI is > 100 µM.

And the TGI [18]?
Its TGI is > 100 µM.

And the TGI [19]?
Its TGI is > 100 µM.

And the TGI [51]?
The TGI was > 100 µM.

What about the TGI [52] of the same molecule?
Its TGI is > 100 µM.

And the TGI [53]?
Its TGI is > 100 µM.

And the TGI [21]?
Its TGI is > 100 µM.

And the TGI [54]?
Its TGI is > 100 µM.

And the TGI [55]?
The TGI was > 100 µM.

And the TGI [22]?
The TGI was > 100 µM.

What about the TGI [23] of the same molecule?
The TGI was > 100 µM.

And the TGI [24]?
The TGI was > 100 µM.

And the TGI [56]?
The TGI was > 100 µM.

What about the TGI [25] of the same molecule?
The TGI was > 100 µM.

What about the TGI [57] of the same molecule?
Its TGI is > 100 µM.

What about the TGI [26] of the same molecule?
The TGI was > 100 µM.

And the TGI [58]?
Its TGI is > 100 µM.

What about the TGI [27] of the same molecule?
The TGI was > 100 µM.

What about the TGI [29] of the same molecule?
The TGI was > 100 µM.

And the TGI [59]?
Its TGI is > 100 µM.

And the TGI [60]?
Its TGI is > 100 µM.

What about the TGI [30] of the same molecule?
Its TGI is > 100 µM.

And the TGI [31]?
The TGI was > 100 µM.

What about the TGI [32] of the same molecule?
Its TGI is > 100 µM.

And the TGI [33]?
The TGI was > 100 µM.

What about the TGI [34] of the same molecule?
Its TGI is > 100 µM.
